Measured values taken from US20110052732A1, “MINERAL ABSORPTION ACCELERATOR AND IRON DEFICIENCY ANEMIA IMPROVER OF FOOD COMPOSITION” (FUJIFILM Corporation, priority 2008, published 2011).

Tested on: SD rats
Test: Mineral balance test in rats (absorption rate, internal retention rate, serum concentration)
Assay type: in vivo, rat
Conditions: oral aqueous solution 2.0 g/day; for Absorption rate of calcium / Absorption rate of iron / Absorption rate of magnesium / Absorption rate of zinc / Internal retention rate of calcium / Internal retention rate of iron / Internal retention rate of magnesium / Internal retention rate of zinc: 14 days, then urine and feces collected for 4 days
Source text: SD rats (males) of 4 weeks of age after birth were preliminarily reared for 1 week and then divided into a control group and 6 sample ingestion groups, each group consisting of 6 animals, at random based on body weight. In the rats of salacinol administration group, 0.1% salacinol aqueous solution was orally administered at a dose of 2.0 g/day per unit weight of rat. In the rats of voglibose administration group, 0.4% voglibose aqueous solution was orally administered at a dose of 2.0 g/day per unit weight of rat. In the rats of acarbose administration group, 0.4% acarbose aqueous solution was orally administered at a dose of 2.0 g/day per unit weight of rat. In the rats of Salacia extract powder administration group, 1% Salacia extract powder aqueous solution was orally administered at a dose of 2.0 g/day per unit weight of rat. In the rats of mulberry extract powder administration group, 1% mulberry extract powder aqueous solution was orally administered at a dose of 2.0 g/day per unit weight of rat. In the rats of Salacia extract powder+green tea extract administration group, 1% Salacia extract powder+1% green tea extract mixed aqueous solution was orally administered at a dose of 2.0 g/day per unit weight of rat. In the rats of control group, water was orally administered at a dose of 2.0 g/day per unit weight of rat. Each rat was reared with a solid feed (CRF-1 mfd. by Oriental Yeast) for 14 days and then transferred into a cage for metabolism analysis, and urine and feces were collected for a period of 4 days to measure concentrations of iron, calcium, magnesium and zinc. Detection of minerals from feces was carried out using inductively coupled plasma emission spectrometry, and those from urine and serum using atomic absorption method. Absorption rate and internal holding rate of each mineral were calculated using the following formulae. Absorbed amount=ingested amount−discharged amount into feces Absorption rate (%)=absorbed amount÷ingested amount×100 Internally retained amount=absorbed amount−discharged amount into urine Internal retention rate (%)=internally retained amount÷ingested amount×100 Results of the absorption rate and internal retention rate of minerals and concentration of mineral in serum by the mineral balance test are respectively shown in Tables 3 to 5.

SMILES	Absorption rate of calcium [%]	Absorption rate of iron [%]	Absorption rate of magnesium [%]	Absorption rate of zinc [%]	Internal retention rate of calcium [%]	Internal retention rate of iron [%]	Internal retention rate of magnesium [%]	Internal retention rate of zinc [%]	Concentration of calcium in serum [mg/dL]	Concentration of iron in serum [µg/dL]	Concentration of magnesium in serum [mg/dL]	Concentration of zinc in serum [µg/dL]
O=S(=O)([O-])O[C@@H](CO)[C@H](O)C[S@+]1C[C@@H](O)[C@H](O)[C@H]1CO [Salacinol]	33.2	38.5	20.5	30.1	32.3	34.2	23.6	19.5	11.8	298.6	2.06	122.7
C[C@H]1O[C@H](O[C@H]2[C@H](O)[C@@H](O)[C@@H](O[C@H]3[C@H](O)[C@@H](O)C(O)O[C@@H]3CO)O[C@@H]2CO)[C@H](O)[C@@H](O)[C@@H]1N[C@H]1C=C(CO)[C@@H](O)[C@H](O)[C@H]1O (stereo partly drawn) [Acarbose, acarbose]	32.8	37.5	20.8	29.3	31.5	32.8	23.1	18.4	10.9	289.3	2.01	121.3
OCC(CO)N[C@H]1C[C@](O)(CO)[C@@H](O)[C@H](O)[C@H]1O [Voglibose, voglibose]	32.5	37.8	21.2	29.8	32.1	33.9	24.0	18.6	10.9	292.5	2.04	120.2
